Results: patent publication US4263323A, “β-Receptor blocking compounds and treatment of cardiovascular disorders therewith” (priority 1979, dated 1981)

Experiments:
[1] = target: T1, β-receptors (vascular resistance in one hind leg) (Felis catus, UniProt Q9TST5); experiment: β-blockade of isoprenaline peripheral resistance response (hind leg), reserpinized anesthetized cat; type: in vivo; conditions: iv, 0.012-51.2 μmol/kg, isoproterenol 0.1 μg/kg i.v.
T1 construct: from tissue; host or cells: hind-leg vasculature of the living, reserpinized, anesthetized cat (in vivo)
Method: (§1) The agents of the present invention were tested as regards their biological properties. All compounds were thereby tested in anesthetized cats (males and females weighing 2.5-3.5 kg) pretreated with reserpine (5 mg/kg bodyweight administered intramuscularly) about 16 hours before the experiments. The animals were pretreated with reserpine in order to eliminate the endogenous sympathetic control of heart rate and vascular smooth muscle tone. The cats were anesthetized with pentobarbital (30 mg/kg bodyweight administered i.p.) and artificially ventilated with room air. A bilateral vagotomy was performed in the neck. Blood pressure was obtained from a cannulated carotid artery and heart rate was registered from a cardiotachometer, triggered by the electrocardiogram (ECG). Vascular resistance in one hind leg was recorded by an autoperfusion technique. Intrinsic beta mimetic activity on the heart was seen as increased heart rate after drug administration. The test compounds were given intravenously in logarithmically increasing doses. […] Blockade of the heart rate and vascular resistance response to isoproterenol was calculated for each dose and expressed as percent decrease of the response obtained when isoproterenol was injected before any dose of the test compound. […]

α-receptors = target: T2, α-receptors (Rattus norvegicus, UniProt P43140); experiment: α-receptor blocking activity in isolated rat vas deferens (noradrenaline contraction); conditions: read-out: pA2 (α-receptor blocking activity) (converted)
T2 construct: from tissue; host or cells: isolated rat vas deferens
T2 sequence (P43140 1-466): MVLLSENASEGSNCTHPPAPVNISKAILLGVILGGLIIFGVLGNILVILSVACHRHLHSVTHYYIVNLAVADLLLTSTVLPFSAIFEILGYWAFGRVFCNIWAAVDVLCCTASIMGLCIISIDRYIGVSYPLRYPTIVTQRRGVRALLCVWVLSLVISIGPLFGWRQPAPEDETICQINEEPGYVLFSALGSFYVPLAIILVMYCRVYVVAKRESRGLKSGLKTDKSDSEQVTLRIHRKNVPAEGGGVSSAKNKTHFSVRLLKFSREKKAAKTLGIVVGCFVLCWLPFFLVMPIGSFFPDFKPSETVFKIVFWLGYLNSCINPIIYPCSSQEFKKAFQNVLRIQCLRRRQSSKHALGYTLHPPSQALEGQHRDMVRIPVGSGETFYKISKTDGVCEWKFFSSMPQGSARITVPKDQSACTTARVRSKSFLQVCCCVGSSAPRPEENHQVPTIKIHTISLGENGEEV
Method: α-receptor blocking activity was tested in isolated rat vas deferens. Noradrenaline administered to the organ bath induces a contraction in vas deferens by activating α-receptors. The ability of the test compounds to inhibit this noradrenaline response was studied. The α-receptor blocking activity was expressed as pA2 values. pA2 is defined as the negative logarithm of the concentration of an antagonist (in our case the test compounds) which leads to the fact that the dose of the agonist (in our case noradrenaline) has to be doubled in order to obtain the same effect of the agonist as that obtained without the antagonist present. Thus a high pA2 value indicates a high α-receptor blocking activity of a compound.

heart rate = experiment: Intrinsic beta mimetic activity on the heart, reserpinized cat; type: in vivo
Method: as §1

cardiac β-receptors = target: T3, cardiac β-receptors (Felis catus, UniProt Q9TST6); experiment: β-blockade of isoprenaline heart rate response, reserpinized anesthetized cat; type: in vivo; conditions: iv, 0.012-51.2 μmol/kg, isoproterenol 0.1 μg/kg i.v.
T3 construct: from tissue; host or cells: heart of the living, reserpinized, anesthetized cat (in vivo heart rate)
Method: The new compounds have valuable pharmacological properties. Thus they block cardiac β-receptors, which is shown at the determination of the antagonism of tachycardia after an intravenous injection of 0.1 ug/kg of 1-isoproterenol sulphate on an anaesthetized cat at an intravenous dose of 0.012-51.2 umol/kg. The compounds are heart selective with regard to their β-blocking activity.
as §1, with “Blood pressure was obtained from a cannulated carotid artery and heart rate was registered from a cardiotachometer, triggered by the electrocardiogram (ECG).” left out, “technique.” for “technique. Intrinsic beta mimetic activity on the heart was seen as increased heart rate after drug administration. The test compounds were given intravenously in logarithmically increasing doses.”

T3 sequence (Q9TST6 whole entry): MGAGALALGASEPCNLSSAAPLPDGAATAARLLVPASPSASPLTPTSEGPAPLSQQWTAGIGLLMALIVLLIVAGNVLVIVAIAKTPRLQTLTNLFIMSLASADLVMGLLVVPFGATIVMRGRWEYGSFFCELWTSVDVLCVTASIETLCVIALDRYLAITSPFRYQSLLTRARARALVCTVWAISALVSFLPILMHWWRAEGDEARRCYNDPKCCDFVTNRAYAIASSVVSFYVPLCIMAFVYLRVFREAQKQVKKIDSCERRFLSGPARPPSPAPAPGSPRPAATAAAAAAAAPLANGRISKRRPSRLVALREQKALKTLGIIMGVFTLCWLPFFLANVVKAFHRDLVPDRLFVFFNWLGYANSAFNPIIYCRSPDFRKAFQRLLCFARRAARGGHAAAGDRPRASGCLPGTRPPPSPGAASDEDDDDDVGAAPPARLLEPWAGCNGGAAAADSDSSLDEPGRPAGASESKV
T1 sequence (Q9TST5 whole entry): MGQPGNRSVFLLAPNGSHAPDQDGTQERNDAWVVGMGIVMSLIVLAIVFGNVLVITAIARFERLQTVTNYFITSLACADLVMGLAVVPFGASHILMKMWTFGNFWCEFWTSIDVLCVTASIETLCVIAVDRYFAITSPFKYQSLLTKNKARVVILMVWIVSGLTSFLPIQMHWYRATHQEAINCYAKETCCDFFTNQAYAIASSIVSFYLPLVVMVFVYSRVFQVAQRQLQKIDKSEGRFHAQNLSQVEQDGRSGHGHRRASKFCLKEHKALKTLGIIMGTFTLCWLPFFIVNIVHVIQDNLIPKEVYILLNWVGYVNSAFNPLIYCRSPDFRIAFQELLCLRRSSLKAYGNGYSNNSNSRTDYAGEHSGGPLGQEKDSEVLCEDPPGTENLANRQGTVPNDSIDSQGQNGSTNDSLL

ED50 [1]: 1.8 µmol/kg
Kb (α-receptors): 3.16 µM
SMILES: COCCNC(=O)COc1ccccc1OCC(O)CNCCOc1ccc(O)cc1 (centres unmarked) [3-[2-(4-hydroxyphenoxy)ethylamino]-1-o-methoxyethylaminocarbonylmethoxyphenoxy-propanol-2]
Emax (heart rate; Felis catus, iv, % of isoprenaline): 0%
Intrinsic activity Δbeats/min. (heart rate; i.v.): 0 beats/min
ED50 (cardiac β-receptors): 0.05 µmol/kg
